{"source": "patent US10835564B2", "about": "“Composition for preventing and treating premature ovarian failure, containing Evodia rutaecarpa bentham extract having protective activity against ovotoxicity” (DONGGUK UNIVERSITY GYEONGJU CAMPUS INDUSTRY-ACADEMY …, priority 2015, dated 2020)", "test_system": "CHO-K1 cells", "assay": "MTT assay, cytotoxicity against CHO-K1 cells", "assay_type": "cell-based, hamster", "details": "24 hours, FIG. 4, read-out: concentration at which the viability of CHO-K1 cells became about 50%", "procedure": "The cell viability was analyzed by a 3-(4,5-dimethylthiazol)-2,5-diphenyltetrazolium bromide (MTT) assay method. After CHO-K1 cells at 2×10^4 cells/well were cultured in a 48-well plate and then serum starved for 4 hours, VCD was treated at various concentrations or the respective medicines were pre-treated at 100 μg/ml, VCD (1.5 mM) was sequentially treated, and the cells were cultured under the conditions of 37° C. and 5% CO2 for 24 hours. After 30 μl of an MTT solution (2 mg/ml) per well was added thereto and the resulting mixture was allowed to react in an incubator at 37° C. and 5% CO2 for 3 hours, the MTT solution and the culture solution were completely removed, and then formazan crystallites formed in the cells were dissolved by using 150 μl of dimethyl sulfoxide (DMSO, Sigma-Aldrich, USA), and the absorbance thereof was measured at 595 nm by using an ELISA plate reader (DYNEX, Opsys MR, USA). The cell viability for the control was expressed as a percentage.\nThe cytotoxicity of VCD against CHO-K1 cells was evaluated by the MTT assay according to Example 1-4, and as a result, the concentration (1.5 mM) at which the viability of CHO-K1 cells by VCD became about 50% was determined (see FIG. 4), and the result was applied to the following experiment. […]", "data": [{"smiles": "C1CC2OC2CC1C1CO1", "note": "(stereo not shown) [VCD, 4-vinylcyclohexene diepoxide]", "values": [{"measurement": "IC50", "value": 1500, "unit": "µM"}]}]}
